The results in this text go back to PMC12040169 (PLOS Biology, 2025).

The nature of data set [1]: in vitro. To be noted: human, hela cells; bulk resorufin, mean of 2. Details: Viability of infected HeLa host cells, resazurin conversion, bulk resorufin fluorescence relative to DMSO.
Data set [2] relates to T1, C. trachomatis L2/434/Bu expressing GFP (CTL2-GFP).
T1 construct: L2/434/Bu GFP intracellular growth in HeLa cells
Nature of the data set: microbe, parasite or virus in culture. Details: C. trachomatis total inclusion area by high-content imaging, normalised to DMSO. The following applies: Chlamydia trachomatis, HeLa, 28.5 h; total inclusion area; read-out: % of control remaining. An excerpt: We screened a library of 36,785 small molecules displaying drug-like properties and covering a wide chemical space (Fig 1A and S2A Data). In this process, we also complemented the assay described above with an imaging-based readout (Fig 1B). After measurements of bulk GFP and resorufin fluorescence, cells were fixed, stained with the DNA dye Hoechst, and imaged at a high-content imaging platform to detect chlamydial inclusions (GFP) and host cell nuclei (Hoechst). The total area and number of inclusions in individual wells and the number of nuclei then served as additional proxies for chlamydial growth and host cell viability. […] MICs were calculated as described above.

The test system of data set [3] is T2, CTL2-GFP (C. trachomatis L2/434/Bu, GFP-expressing).
T2 construct: L2/434/Bu, GFP-expressing
Nature of the data set: microbe, parasite or virus in culture. Details: Intracellular C. trachomatis growth in HeLa cells, bulk GFP fluorescence relative to DMSO. To be noted: Chlamydia trachomatis, HeLa, 28.5 h; bulk GFP, mean of 2; read-out: % of control remaining. How it is done: MICs were calculated as described above.

Data set [4] in a line: in vitro. To be noted: human, hela cells, % viability.

With `CN(C)[C@H]1CCC[C@@H]1C(=O)Nc1ccc(Cl)c(Cl)c1` [CBK003406], in “in vitro [1]”, the viability at 28.5 h, 1 µM was 105%; the viability at 28.5 h, 5 µM was 109%; the viability at 28.5 h, 10 µM turned out to be 107%. Further, in data set [2], the activity at 1 µM stood at 112%, the activity at 5 µM worked out at 76.4% and the activity at 10 µM turned out to be 20.8%. Further, in data set [3], the activity at 1 µM worked out at 90.9%, the activity at 5 µM was 67.2% and the activity at 10 µM was 13%. `COc1cc(NS(=O)(=O)c2ccc(Nc3nc(-c4sc(N)nc4C)cs3)cc2)nc(OC)n1` [CBK262796]: in the data set “in vitro [1]”, the viability at 28.5 h, 1 µM is 93.6%; the viability at 28.5 h, 5 µM is 92.2%; the viability at 28.5 h, 10 µM is 88%. In data set [2], the activity at 1 µM amounted to 110%, the activity at 5 µM worked out at 55.3% and the activity at 10 µM was determined as 28.8%. Besides, in data set [3], the activity at 1 µM is 106%, the activity at 5 µM is 58.4% and the activity at 10 µM is 32.6%. For the molecule `Cc1cc(C)nc(NS(=O)(=O)c2ccc(Nc3ccc4nonc4c3[N+](=O)[O-])cc2)n1` [CBK261444], in the data set “in vitro [1]”, the viability at 28.5 h, 1 µM was found to be 92.5%; the viability at 28.5 h, 5 µM came out at 86.4%; the viability at 28.5 h, 10 µM came to 79.7%. Further, in data set [2], the activity at 1 µM was determined as 130%, the activity at 5 µM worked out at 121% and the activity at 10 µM came out at 67.5%. In addition, in data set [3], the activity at 1 µM was determined as 132%, the activity at 5 µM amounted to 92.2% and the activity at 10 µM was 60.3%.

As to `COc1ccc(Br)cc1C1CC(=O)Nc2c(-c3cccc(F)c3)csc21` (stereo not drawn) [CBK294442], in “in vitro [1]”, the viability at 28.5 h, 1 µM came out at 96.8%; the viability at 28.5 h, 5 µM came to 96.5%; the viability at 28.5 h, 10 µM stood at 95.7%. In data set [2], the activity at 1 µM was 118%, the activity at 5 µM was 29.4% and the activity at 10 µM was found to be 66.4%. Besides, in data set [3], the activity at 1 µM amounted to 132%, the activity at 5 µM was found to be 65.3% and the activity at 10 µM came to 59.3%.

`CC(=O)N1CCc2sccc2C1c1ccccc1NCc1ccoc1` (stereo not drawn) [CBK286432]: in the data set “in vitro [1]”, the viability at 28.5 h, 1 µM turned out to be 85%; the viability at 28.5 h, 5 µM is 86.8%; the viability at 28.5 h, 10 µM was 85.9%. For the same molecule, in data set [2], the activity at 1 µM stood at 61.5%, the activity at 5 µM amounted to 24.5% and the activity at 10 µM is 22.5%. Moreover, in data set [3], the activity at 1 µM came to 87.1%, the activity at 5 µM was 34% and the activity at 10 µM was found to be 26.3%. For the molecule `COc1ccc2cc3c(nc2c1)OC(=O)N(CC1CC1)C3` [CBK282432], in “in vitro [1]”, the viability at 28.5 h, 1 µM stood at 112%; the viability at 28.5 h, 5 µM turned out to be 108%; the viability at 28.5 h, 10 µM was found to be 110%. In addition, in data set [2], the activity at 1 µM was found to be 90.9%, the activity at 5 µM is 15.2% and the activity at 10 µM was found to be 0.584%. Also, in data set [3], the activity at 1 µM was 92.7%, the activity at 5 µM was determined as 19% and the activity at 10 µM was determined as 0.603%. With `COc1ccc(C)cc1NS(=O)(=O)CC(C)C` [CBK111346], in “in vitro [4]”, the viability at 28.5 h, 10 µM amounted to 93.8%.

With `O=C(O)c1ccccc1C1Nc2ccccc2S(=O)(=O)N1Cc1ccccc1` (stereo not drawn) [CBK286587], in “in vitro [4]”, the viability at 28.5 h, 10 µM was determined as 107%. As for `O=C(O)c1cccc(-c2ccc(/C=C\c3nc(O)c([N+](=O)[O-])c(=O)[nH]3)o2)c1` [CBK267209], the viability at 28.5 h, 10 µM in “in vitro [4]” came out at 96.9%. On the same count and under the same terms, under `CN1C[C@@H](NS(C)(=O)=O)C[C@H]1c1nc(-c2ccc3ccccc3c2)no1` [CBK288859] stands 106%; under `COc1ccc(-n2ncc3c(N4CCN(Cc5ccccc5)CC4)ncnc32)cc1` [CBK265879], 88.8%. For the molecule `CN1CCN(c2ccc([N+](=O)[O-])cc2/C=N/NC(=O)CCc2ccccc2O)CC1` [CBK263281], the viability at 28.5 h, 10 µM in “in vitro [4]” turned out to be 97.7%. On to `OCc1ccccc1-c1cncc(Nc2cccc(Cl)c2)n1` [CBK065400], for which, in the data set “in vitro [4]”, the viability at 28.5 h, 10 µM came to 102%. As to `Cc1nc(Nc2c(Cl)cc(S(N)(=O)=O)cc2Cl)sc1C(=O)Nc1ccccc1` [CBK265335], the viability at 28.5 h, 10 µM in “in vitro [4]” is 106%. Still for that read-out and setting: with `COCCOC(=O)C1=C(C)NC2=C(C(=O)CC(c3ccc(OC)cc3)C2)C1c1ccc(F)cc1` (stereo not drawn) [CBK293921] the figure was 88.9%; with `Cc1nnc(SCCOc2ccc(Cl)c(C)c2)s1` [CBK026160], 89.9%; with `Cn1cc(-c2ncc(OCc3ccc4c(c3)OCO4)nc2N)cn1` [CBK145168], 105%. `COc1ccc([C@@]23CC[C@@H](NC(=O)c4ccc5occc5c4)C[C@@H]2N(C)CC3)cc1OC` [CBK074253T]: in “in vitro [4]”, the viability at 28.5 h, 10 µM was 99%. Still for that read-out and setting: with `Cc1ccc(C2CC(=O)c3cnc(N)nc3C2)cc1` (stereo not drawn) [CBK288166] the figure was 92%; with `CC(C)OC(=O)Cn1c(C2CCNCC2)cc2cccnc21` [CBK285075], 99.9%. The same measure, in the same setting: with `Cc1cc(C)c2nonc2c1S(=O)(=O)NCCN1CCCCC1CO` (stereo not drawn) [CBK306966] the figure was 94.8%. Turning to `O=C(O)c1[nH]c(=O)[nH]c(=O)c1CN1CCCCC1` [CBK286688], the viability at 28.5 h, 10 µM in “in vitro [4]” was 96.8%. On to `CC(C)c1cc(C(=O)N2CC(N3CCOCC3)C2)nc2ncnn12` [CBK306572], for which the viability at 28.5 h, 10 µM in the data set “in vitro [4]” turned out to be 86.9%. For `CC(=O)NCCSc1nccnc1NC(C)C` [CBK105289], the viability at 28.5 h, 10 µM in the data set “in vitro [4]” is 92.8%. Regarding `CCn1c(CN2CC(C)CC(C)C2)nc2c1c(=O)n(C)c(=O)n2C` (stereo not drawn) [CBK306030], in the data set “in vitro [4]”, the viability at 28.5 h, 10 µM turned out to be 84.4%.

Take `CCNC(=O)N1CCC(NS(=O)(=O)c2cnc3ccccc3c2)C1` (stereo not drawn) [CBK304419]: the viability at 28.5 h, 10 µM in “in vitro [4]” was determined as 85.3%. The same measure, in the same setting: under `COCOc1ccc(-c2nc(-c3ccco3)cnc2N)cc1` [CBK064108] stands 82.9%; under `c1cn(CC2(Cn3ccnc3)COC2)cn1` [CBK021839], 108%; under `CS(=O)(=O)N[C@H]1CO[C@H]2[C@@H]1OC[C@@H]2Nc1nccc(-c2cccs2)n1` [CBK289519], 92%. The same measure, in the same setting: under `Cc1c(C(=O)NCCN2CCC(C)CC2)oc2c1C(O)CC(C)(C)C2` (stereo not drawn) [CBK282100] stands 87.1%. Same read-out and setting: under `Cc1nc(CC(=O)OC(C)C(=O)N2CCCc3ccccc32)cs1` (stereo not drawn) [CBK305285] stands 91.6%. As to `O=C(CCSc1nnnn1-c1ccc(C(=O)O)cc1)Nc1ccc(F)cc1` [CBK300497], in “in vitro [4]”, the viability at 28.5 h, 10 µM amounted to 88.4%. For the molecule `OCC1CCCN1c1cncc(-c2ccc3c(c2)OCO3)n1` (stereo not drawn) [CBK065908], the viability at 28.5 h, 10 µM in the data set “in vitro [4]” is 100%. The same measure, in the same setting: under `Cc1ccc(C(=O)N2CCC(c3nc4ccccc4s3)CC2)cc1NS(C)(=O)=O` [CBK254629] stands 89.2%; under `CC(=O)Nc1ccccc1NC(=O)CCCN1C(=O)CCC1=O` [CBK267681], 92.8%. The same measure, in the same setting: under `CN(C)c1ccc(CCNS(=O)(=O)c2ccc3[nH]c(=O)[nH]c(=O)c3c2)cc1` [CBK285938] stands 84.8%; under `O=C(c1ccc2ccccc2c1)N1CCC2(CC1)CN(Cc1ccccc1)CCO2` [CBK161118A], 94.1%. Take `CN1C(=O)NC(c2ccc(Br)cc2)C2=C1CN(c1cccc(C(=O)O)c1)C2=O` (stereo not drawn) [CBK286729]: the viability at 28.5 h, 10 µM in the data set “in vitro [4]” came out at 84.3%. Same read-out and setting: with `O=C(O)c1cc(S(=O)(=O)NCc2ccco2)ccc1Cl` [CBK058905] the figure was 85.4%; with `O=C(CCCC1CC1)N1CCn2c(nnc2-c2cncc(Br)c2)C1` [CBK304767], 96.4%. Still for that read-out and setting: with `O=S(=O)(Nc1ccc(-c2nc3cccnc3s2)cc1)c1ccccc1` [CBK287547] the figure was 116%; with `Cc1nc(C2CCCN(C(=O)c3ccncc3)C2)c2sccn12` (stereo not drawn) [CBK285199], 90.8%. Same read-out and setting: with `O=C(Cc1ccccc1F)N1CCCC(c2cnccn2)C1` (stereo not drawn) [CBK284601] the figure was 96.8%; with `O=C(Nc1ccc2c(O)cc(S(=O)(=O)O)cc2c1)Nc1ccc2c(O)cc(S(=O)(=O)O)cc2c1` [CBK278157N], 91.1%; with `COc1ccccc1OCC(=O)Nc1cc(C)nc2ccccc12` [CBK122728], 97.3%.

For `C[C@]12CN(Cc3ccccc3)C[C@H]1NC(=O)c1ccccc1C2O` (stereo partly drawn) [CBK282302], the viability at 28.5 h, 10 µM in the data set “in vitro [4]” was 112%. Same read-out and setting: with `O=C(c1cc(S(=O)(=O)NCc2ccco2)c(Cl)cc1Cl)N1CCC1` [CBK305004] the figure was 98%.

In the case of `CN(C)CCN(C)C(=O)c1ccc(-c2cccc(C(=O)NCCO)c2)nc1N1CCOCC1` [CBK076592], the viability at 28.5 h, 10 µM in the data set “in vitro [4]” came to 92.5%. On to `CCOC(=O)c1sc(NS(=O)(=O)Cc2ccccc2[N+](=O)[O-])nc1C` [CBK047458], for which, in “in vitro [4]”, the viability at 28.5 h, 10 µM was 98.5%.

For `O=C(CSc1nnc(Cc2ccccc2)o1)N1c2ccccc2Sc2ccccc21` [CBK268008], in “in vitro [4]”, the viability at 28.5 h, 10 µM came to 96.4%.

For the molecule `CC(=O)c1ccc(-c2nc(NC(=O)CC3OC(=O)c4ccccc43)cnc2-c2cccc(C)c2)s1` (stereo not drawn) [CBK037152], the viability at 28.5 h, 10 µM in “in vitro [4]” came to 112%. Consider `COc1ccc(-c2cnc3[nH]c(=O)n(C4CC4)c3n2)cc1` [CBK064907], for which the viability at 28.5 h, 10 µM in “in vitro [4]” worked out at 86.9%. Turning to `CC(NC(=O)N1CCSCC1)c1cccc(Br)c1` (stereo not drawn) [CBK306475], the viability at 28.5 h, 10 µM in the data set “in vitro [4]” turned out to be 86.2%. On the same count and under the same terms, under `Cc1nn(CCC(=O)NC(C)Cc2ccccn2)c(C)c1Cl` (stereo not drawn) [CBK281419] stands 97.1%.

The viability is a read-out of living cells in per cent, often relative to untreated cells.
